Test results reported in patent EP1712231A2 (priority 1998, dated 2000).
Marks after values point to notes of the source that are not given here.

Columns and labels:
[1] = Table 1: tipranavir drug-drug interaction potential and routes of elimination of antiretrovirals; conditions: drug-drug interaction with tipranavir
[2] = Study 1: pharmacokinetic drug-drug interaction of tipranavir 1350 mg BID and ritonavir 500 mg BID, plasma levels by HPLC; assay type: in vivo, human; conditions: for CLPO / Cmin / Css: median (range)
Text: Twelve subjects were Caucasian and two were of African descent. Ten subjects completed all aspects of the study. Pharmacokinetic analyses were based on the results obtained in these subjects. […] Detection was by UV absorbance at 260 nm. […] Ritonavir and the internal standard (IS) were extracted from human plasma by liquid-liquid extraction with an ethyl acetate mixture.

[3] = Example 4: pharmacokinetic drug-drug interaction of tipranavir SEDDS 1250 mg BID and ritonavir oral solution 200 mg BID; assay type: in vivo, human
[4] = Study 2: pharmacokinetic drug-drug interaction of tipranavir 600 or 900 mg BID and ritonavir 100-500 mg BID, plasma levels by HPLC; assay type: in vivo, human; conditions: for CLPO / Cmin / Css / AUC / Cmax / Tmax: median (range); for half-life / AUC / Cmax / Tmax: both sexes, human, plasma, oral; for half-life: harmonic mean (range), read-out: t½ (converted)
Method: Both groups received their assigned dose of tipranavir continuously throughout the study period. […] The pharmacokinetics of tipranavir when coadministered with ritonavir were evaluated and compared with baseline data, while the ritonavir data were compared to historical data. The study was conducted in 19 healthy volunteers (16 males and 3 females) with a mean age of 30 years (range, 19-52 years), height of 177.1 cm (range, 162.6-190.5 cm), and weight of 76.7 kg (range, 57.3-95.0 kg). Eighteen subjects were Caucasian […]. […] Pharmacokinetic analyses were based on those subjects completing the baseline evaluation and at least one period of concomitant drug administration. […] Detection was by UV absorbance at 260 nm. […] Ritonavir and the internal standard (IS) were extracted from human plasma by liquid-liquid extraction with an ethyl acetate mixture.

[5] = Ritonavir 500 mg BID + Tipranavir 1350 mg BID, n=10
[6] = Ritonavir 500 mg BID alone, steady state, n=10
[7] = ritonavir 500 mg BID + tipranavir 1350 mg BID vs ritonavir alone
[8] = Ritonavir Oral Solution 200mg BID + Tipranavir SEDDS SEC 1250mg BID, median (range), N=21
[9] = ritonavir 200 mg BID + tipranavir 1250 mg BID vs 500-mg twice-daily ritonavir alone
[10] = Ritonavir 500 mg BID + Tipranavir 600 mg BID, N=7
[11] = Ritonavir 500 mg BID + Tipranavir 900 mg BID, N=6
[12] = ritonavir 500 mg BID + tipranavir 600 or 900 mg BID vs ritonavir alone

Nc1nc(NC2CC2)c2ncn([C@H]3C=C[C@@H](CO)C3)c2n1 [Abacavir]
Potential for Clinically Significant Interaction [1]: Low

CC(C)(C)NC(=O)[C@@H]1CN(Cc2cccnc2)CCN1C[C@@H](O)C[C@@H](Cc1ccccc1)C(=O)N[C@H]1c2ccccc2C[C@H]1O [Indinavir]
Potential for Clinically Significant Interaction [1]: High (and unfavorable)

O=c1[nH]cnc2c1ncn2[C@H]1CC[C@@H](CO)O1 [ddI]
Potential for Clinically Significant Interaction [1]: Low

Cc1ccnc2c1NC(=O)c1cccnc1N2C1CC1 [Nevirapine]
Potential for Clinically Significant Interaction [1]: Uncertain

Cc1c(O)cccc1C(=O)N[C@@H](CSc1ccccc1)[C@H](O)CN1C[C@H]2CCCC[C@H]2C[C@H]1C(=O)NC(C)(C)C [Nelfinavir]
Potential for Clinically Significant Interaction [1]: High (and unfavorable)

C[C@H](Sc1nc(N)cc(Cl)n1)c1cc2ccoc2cn1 [PNU-142721]
Potential for Clinically Significant Interaction [1]: Uncertain

Cc1cn([C@H]2C[C@H](N=[N+]=[N-])[C@@H](CO)O2)c(=O)[nH]c1=O [AZT, zidovudine]
Potential for Clinically Significant Interaction [1]: Low

CC(C)c1nc(CN(C)C(=O)N[C@H](C(=O)N[C@@H](Cc2ccccc2)C[C@H](O)[C@H](Cc2ccccc2)NC(=O)OCc2cncs2)C(C)C)cs1 [Ritonavir, (2S,3S,5S)-5(N-(N-((N-Methyl-N-((2-isopropyl-4-thiazoly)methyl)amino)carbonyl)-L-valinyl)amino)-2-(N-((5-thiazoly)methoxycarbonyl)amino)-1,6-diphenyl-3-hydroxhexane, reference compound]
Potential for Clinically Significant Interaction [1]: High (possibly favorable) (Ritonavir increases trough tipranavir concentrations; tipranavir expected to reduce ritonavir concentrations | CLPO [2, 5]: 26 (17-61) L/h | Cmin [2, 5]: 0.10 (0.04-0.29) µg/mL | Css [2, 5]: 1.6 (0.69-2.50) µg/mL | t½ ([2]; Ritonavir 500 mg BID alone, harmonic mean (range), n=10): 2.9 (2.6-4.4) h | CLPO [2, 6]: 5.1 (3.9-7.8) L/h | Cmin [2, 6]: 1.9 (1.0-3.9) µg/mL | Css [2, 6]: 8.4 (5.3-10.7) µg/mL | half-life ([2]; both sexes, human, plasma, oral, 500 mg, read-out: t½ (converted)): 2.9 h | decrease in mean steady-state ritonavir concentrations [2, 7]: ~5 fold | decrease of median ritonavir Cmax value [2, 7]: 3.8 fold | median ritonavir Cmin concentration, fold lower [2, 7]: more than 10 fold | CLPO [3, 8]: 25.1 (8.4-73.1)* L/h | Cmin [3, 8]: 0.035 (0.000-0.341)* µg/mL | Css [3, 8]: 0.67 (0.23-1.99)* µg/mL | apparent elimination half-life of ritonavir relative to ritonavir given alone ([3]; ritonavir 200 mg BID + tipranavir 1250 mg BID): decreased | median ritonavir AUC, fold lower [3, 9]: 12 fold | median ritonavir Cmax, fold lower [3, 9]: 10 fold | median ritonavir Cmin, fold lower [3, 9]: 54 fold | CLPO [4, 10]: 19 (11-31) L/h | Cmin [4, 10]: 0.15 (0.08-0.53) µg/mL | Css [4, 10]: 2.3 (1.4-3.7) µg/mL | CLPO [4, 11]: 19 (12-27) L/h | Cmin [4, 11]: 0.15 (0.09-0.62) µg/mL | Css [4, 11]: 1.9 (1.6-3.4) µg/mL | half-life [4, 10]: 1.8 h | AUC [4, 10]: 27000 ng·h/mL | Cmax [4, 10]: 7000 ng/mL | Tmax [4, 10]: 3 h | half-life [4, 11]: 1.8 h | AUC [4, 11]: 26000 ng·h/mL | Cmax [4, 11]: 5800 ng/mL | Tmax [4, 11]: 3 h | decrease in steady-state plasma ritonavir concentrations [4, 12]: ~4 fold | median ritonavir Cmax values, fold lower [4, 12]: more than 2 fold | median ritonavir Cmin values, fold lower [4, 12]: more than 10 fold

O=C1Nc2ccc(Cl)cc2[C@@](C#CC2CC2)(C(F)(F)F)O1 [Efavirenz]
Potential for Clinically Significant Interaction [1]: Uncertain (Efavirenz is a possible CYP3A inducer)

Nc1ccn([C@H]2CC[C@@H](CO)O2)c(=O)n1 [ddC]
Potential for Clinically Significant Interaction [1]: Low

CC(C)CN(C[C@@H](O)[C@H](Cc1ccccc1)NC(=O)O[C@H]1CCOC1)S(=O)(=O)c1ccc(N)cc1 [Amprenavir]
Potential for Clinically Significant Interaction [1]: High (and unfavorable)
